According to patent US20170334927A1 (Shanghai Sun-sail Pharmaceutical Science & Technology Co., …, priority 2014, published 2017):
≈ marks a conversion by molar mass, not a printed value. Where a name gives a salt, the structure may show the parent alone.

How the values were obtained:
[1] = physchem; type: physicochemical; details: for Solubility: 3 days, pH 1.2; for solubility at 3 days: pH 1.2, simulated gastric fluid, thermodynamic from solid
Method: 3-5 mg of compound to be tested was added to 0.5 mL of aqueous HCl solution (pH=1.2) and the mixture was shaken for three days on a shaker; the sample was centrifuged for 5 min at 10,000 rpm in a centrifuge; a volumetric flask (50 mL) was loaded with 2 mL of supernatant and water was added to a volume at the graduation mark to prepare a sample solution; and 2.6 mg of sample was precisely weighed into a volumetric flask (50 mL), an appropriate amount of methanol was added to dissolve the sample, and water was added to a volume at the graduation mark and shaken well to give a control sample solution. 20 μL of sample solution and control sample solution were each injected, and tested by liquid chromatography. The solubility was calculated as follows:
Solubility (mg/mL)=C (control)*25*A (sample)/A (control)
C (control): concentration of the control sample
A (sample): peak area of the liquid chromatogram of the sample solution
A (control): peak area of the liquid chromatogram of the control sample solution

[2] = tested on: Mycobacterium tuberculosis H37Rv; experiment: Activity test for Mycobacterium tuberculosis (MIC, H37Rv); type: cell-based; details: for anti Mycobacterium tuberculosis activity (MIC against H37Rv), times of that of PA-824: relative to PA-824; for anti Mycobacterium tuberculosis activity (MIC against H37Rv), times of that of ethambutol: relative to ethambutol; for MIC: Mycobacterium tuberculosis H37Rv, liquid medium, 37° C., read-out: Minimum inhibitory concentration against H37Rv
Method: The tested strain H37Rv was transferred to liquid medium and cultured for 2 weeks at 37° C.; a small amount of the cultured bacterial solution was pipetted and placed in 4 mL of liquid medium; 10-20 sterile glass beads with a diameter of 2-3 mm were added; the mixture was shaken for 20-30 s and left to sediment for 10-20 min; the supernatant of the bacterial suspension was pipetted and adjusted to a turbidity of 1 MCF (equivalent to 1×10^7 CFU/mL) with the liquid medium for use. Each drug was dissolved to 1 mg/mL with an appropriate amount of DMSO and filtered with a 0.22 μm filter. Then, the solution was diluted to a desired experimental concentration with the liquid medium. The final concentrations of the tested drugs were set as follows: 0.001 μg/mL, 0.002 μg/mL, 0.0039 μg/mL, 0.0078 μg/mL, […], 0.03125 μg/mL, 0.0625 μg/mL, 0.125 μg/mL, 0.25 μg/mL, 0.5 μg/mL and 1 μg/mL, a total of 11 concentration gradients. 100 μL of each of the above-mentioned drug solutions was added to a 96-well microwell plate, then 100 μL bacterial solution with a concentration of 1 mg/mL was added to allow the drug concentration to reach the final set concentration, and cultured at 37° C. Three groups in parallel were set for each drug dilution with inoculation amounts of 100%, 10% and 1%, respectively, while no drug was added to the control group.

[3] = biological target: T1, hERG potassium channel (Homo sapiens, UniProt Q12809); experiment: Inhibitory effect on hERG potassium ion channel (whole cell patch clamp, HEK-293 cells); type: cell-based; details: hERG potassium current, room temperature, read-out: IC50 (inhibition on hERG)
T1 construct: host or cells: HEK-293
Method: hERG potassium channel currents were recorded with the whole cell patch clamp technique at room temperature in HEK-293 cells (Creacell™, France) expressing hERG stably. A glass microelectrode with a tip resistance of about 1-4 MΩ was connected to the Axon 200A patch clamp amplifier. Clamp voltage and data record were controlled by a computer via the Axon DigiData 1322A A/D converter with the clampex 9.2 software; the cells were clamped at −80 mV; and the step voltage for inducing the hERG potassium current (IhERG) was changed from −80 mV to +20 mV by providing a 2 s depolarization voltage, repolarized to −40 mV and returned to −80 mV after 4 s. This voltage step was given respectively before and after administration to induce the hERG potassium current.
Data analysis and processing were performed with the PatchMaster, GraphPad Prism 5 and Excel softwares. The degree of inhibition of different compound concentrations on the hERG potassium current (hERG tail current peak induced at −50 mV) was calculated using the following formula:
Fractional block %=[1−(I/Io)]×100%
in the formula, Fractional block represents the percent inhibition of a compound on the hERG potassium current, and I and Io represent the magnitudes of the hERG potassium current […], respectively.
The IC50 of a compound was calculated using the following equation by fitting: […]
in the equation, I and Io represent the magnitudes of the hERG potassium current […], respectively; [C] is the compound concentration, and n is the Hill coefficient.

[4] = Drug metabolism test (pharmacokinetics, oral, mice); type: in vivo, ICR mice; details: 10 mg/kg; for AUC(0-inf) / AUC(0-t) / Cmax / MRT / Tmax / half-life: male, ICR, mouse, po, orally (intragastric), plasma; for pharmacokinetic properties (in words): orally, judgement on Table 6
Method: 18 healthy male ICR mice with a body weight of 18-22 g were administered drugs by intragastric administration, with an administration dose of 10 mg/kg and an administration volume of 10 mL/kg, respectively. These mice were fasted for 12 h before the test and had free access to drinking water. These mice were fed 2 h after administration uniformly. 0.3 mL of blood was taken from the postocular venous plexus of a mouse at the set time points, placed in a heparinized test tube and centrifuged for 10 min at 3000 rpm; and plasma was separated and frozen in a refrigerator at −20° C. When measured, the sample was treated through the method for treating the plasma sample, and the drug concentration in plasma was determined by LC-MS/MS and the pharmacokinetic parameters of the drug were calculated.

[5] = in vivo; cited from earlier work

T1 sequence (Q12809 whole entry): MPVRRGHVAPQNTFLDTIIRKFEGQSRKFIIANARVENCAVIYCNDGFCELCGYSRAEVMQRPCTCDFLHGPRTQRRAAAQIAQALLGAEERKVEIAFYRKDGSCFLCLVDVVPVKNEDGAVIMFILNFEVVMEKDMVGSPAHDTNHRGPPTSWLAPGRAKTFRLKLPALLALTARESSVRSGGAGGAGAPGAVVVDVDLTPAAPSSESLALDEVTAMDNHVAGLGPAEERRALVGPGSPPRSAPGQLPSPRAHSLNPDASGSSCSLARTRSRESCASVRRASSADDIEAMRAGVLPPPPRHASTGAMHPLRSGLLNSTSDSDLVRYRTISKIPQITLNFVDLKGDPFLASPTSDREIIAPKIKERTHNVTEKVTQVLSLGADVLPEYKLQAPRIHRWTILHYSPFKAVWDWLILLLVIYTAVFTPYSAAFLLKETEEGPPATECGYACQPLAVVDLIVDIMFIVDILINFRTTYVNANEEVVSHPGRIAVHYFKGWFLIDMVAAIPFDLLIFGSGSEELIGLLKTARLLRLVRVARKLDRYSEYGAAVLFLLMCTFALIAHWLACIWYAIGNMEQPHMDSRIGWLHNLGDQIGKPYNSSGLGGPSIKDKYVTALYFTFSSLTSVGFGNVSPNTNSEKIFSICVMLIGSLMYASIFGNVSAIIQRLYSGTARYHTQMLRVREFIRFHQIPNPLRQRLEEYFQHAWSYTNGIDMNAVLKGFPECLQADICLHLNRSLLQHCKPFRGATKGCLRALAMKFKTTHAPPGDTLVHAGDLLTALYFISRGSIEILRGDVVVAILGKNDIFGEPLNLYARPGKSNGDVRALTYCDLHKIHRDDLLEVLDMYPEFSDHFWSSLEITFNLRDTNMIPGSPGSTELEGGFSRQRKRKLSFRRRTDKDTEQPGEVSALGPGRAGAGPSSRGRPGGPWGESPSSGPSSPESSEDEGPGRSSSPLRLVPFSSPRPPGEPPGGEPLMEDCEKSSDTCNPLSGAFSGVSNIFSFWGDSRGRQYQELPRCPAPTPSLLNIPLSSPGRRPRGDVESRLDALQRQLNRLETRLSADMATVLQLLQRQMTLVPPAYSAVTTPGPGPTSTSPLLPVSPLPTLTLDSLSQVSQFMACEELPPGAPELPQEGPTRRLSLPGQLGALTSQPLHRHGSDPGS

SMILES: Cc1nc(N2CCN(c3ccc(OC(F)(F)F)cc3)CC2)ncc1CN[C@@H]1COc2nc([N+](=O)[O-])cn2C1 (as salt: methanesulfonate) [Compound 49, (S)-N-((4-methyl-2-(4-(4-(trifluoromethoxy)phenyl)piperazin-1-yl)pyrimidin-5-yl)methyl)-2-nitro-6,7-dihydro-5H-imidazo[2,1-b][1,3]oxazin-6-amine methanesulfonate]
- melting point: 175 to 177 °C

SMILES: CN(Cc1cnc(N2CCN(c3ccc(OC(F)(F)F)cc3)CC2)nc1)[C@@H]1COc2nc([N+](=O)[O-])cn2C1.O=C(O)/C=C/C(=O)O
- melting point: 143 to 145 °C

SMILES: CC1CN(c2ncc(CN[C@@H]3COc4nc([N+](=O)[O-])cn4C3)cn2)CCN1c1ccc(OC(F)(F)F)cc1 (some centres unmarked) [Compound 19]
- Solubility [1]: 1321.8 µg/mL (≈ 2470 µM)
- solubility at 3 days [1]: > 1000 µg/mL
- anti Mycobacterium tuberculosis activity (MIC against H37Rv), times of that of PA-824 [2]: 8 times
- anti Mycobacterium tuberculosis activity (MIC against H37Rv), times of that of ethambutol [2]: 64 times
- MIC [2]: 7.8 ng/mL (≈ 0.0146 µM)
- IC50 [3]: 38.3 µM
- AUC(0-inf) [4]: 16800 ng·h/mL
- AUC(0-t) [4]: 16300 ng·h/mL
- Cmax [4]: 1780 ng/mL
- MRT [4]: 5.02 h
- Tmax [4]: 1.98 h
- half-life [4]: 3.17 h

SMILES: C[C@]1(COc2ccc(N3CCC(Oc4ccc(OC(F)(F)F)cc4)CC3)cc2)Cn2cc([N+](=O)[O-])nc2O1 [OPC-67683]
- oral bioavailability (in words, background) [5]: very low

SMILES: O=[N+]([O-])c1cn2c(n1)OC[C@@H](NCc1ccc(N3CCC(Oc4ccc(OC(F)(F)F)cc4)CC3)nc1)C2 [Compound 1, (S)-2-nitro-N-((6-(4-(4-(trifluoromethoxy)phenoxy)piperidin-1-yl)pyrid-3-yl)methyl)-6,7-dihydro-5H-imidazo[2,1-b][1,3]oxazin-6-amine]
- solubility at 3 days [1]: 784 µg/mL (≈ 1470 µM)
- anti Mycobacterium tuberculosis activity (MIC against H37Rv), times of that of PA-824 [2]: 8 times
- anti Mycobacterium tuberculosis activity (MIC against H37Rv), times of that of ethambutol [2]: 64 times
- MIC [2]: 7.8 ng/mL (≈ 0.0146 µM)
- AUC(0-inf) [4]: 32300 ng·h/mL
- AUC(0-t) [4]: 31300 ng·h/mL
- Cmax [4]: 2670 ng/mL
- MRT [4]: 6.64 h
- Tmax [4]: 2.33 h
- half-life [4]: 4.76 h
- pharmacokinetic properties (in words) [4]: excellent

SMILES: O=[N+]([O-])c1cn2c(n1)OC[C@@H](NCc1cnc(N3CCN(c4ccc(OC(F)(F)F)cc4)CC3)nc1)C2 [Compound 18]
- Solubility [1]: 1532.1 µg/mL (≈ 2940 µM)
- solubility at 3 days [1]: > 1000 µg/mL
- anti Mycobacterium tuberculosis activity (MIC against H37Rv), times of that of PA-824 [2]: 8 times
- anti Mycobacterium tuberculosis activity (MIC against H37Rv), times of that of ethambutol [2]: 64 times
- MIC [2]: 7.8 ng/mL (≈ 0.015 µM)
- IC50 [3]: 41.1 µM
- AUC(0-inf) [4]: 16700 ng·h/mL
- AUC(0-t) [4]: 16000 ng·h/mL
- Cmax [4]: 1470 ng/mL
- MRT [4]: 7.11 h
- Tmax [4]: 2 h
- half-life [4]: 5.29 h

SMILES: Cc1nc(N2CCN(c3ccc(OC(F)(F)F)cc3)CC2)ncc1CN[C@@H]1COc2nc([N+](=O)[O-])cn2C1 [Compound 36]
- Solubility [1]: 1123.7 µg/mL (≈ 2100 µM)
- solubility at 3 days [1]: > 1000 µg/mL
- anti Mycobacterium tuberculosis activity (MIC against H37Rv), times of that of PA-824 [2]: 8 times
- anti Mycobacterium tuberculosis activity (MIC against H37Rv), times of that of ethambutol [2]: 64 times
- MIC [2]: 7.8 ng/mL (≈ 0.0146 µM)
- AUC(0-inf) [4]: 16700 ng·h/mL
- AUC(0-t) [4]: 16100 ng·h/mL
- Cmax [4]: 2020 ng/mL
- MRT [4]: 4.71 h
- Tmax [4]: 1.87 h
- half-life [4]: 2.87 h

SMILES: N#CC1(c2ccc(OC(F)(F)F)cc2)CCN(c2ncc(CN[C@@H]3COc4nc([N+](=O)[O-])cn4C3)cn2)CC1 [Compound 24, (S)-1-(5-(((7-nitro-3,4-dihydro-2H-imidazo[2,1-b][1,3]oxazin-3-yl)amino)methyl)pyrimidin-2-yl)-4-(4-(trifluoromethoxy)phenyl)piperidine-4-carbonitrile]
- solubility at 3 days [1]: 782 µg/mL (≈ 1440 µM)
- anti Mycobacterium tuberculosis activity (MIC against H37Rv), times of that of PA-824 [2]: 16 times
- anti Mycobacterium tuberculosis activity (MIC against H37Rv), times of that of ethambutol [2]: 128 times
- MIC [2]: 3.9 ng/mL (≈ 0.00716 µM)
- AUC(0-inf) [4]: 18300 ng·h/mL
- AUC(0-t) [4]: 18200 ng·h/mL
- Cmax [4]: 1980 ng/mL
- MRT [4]: 4.45 h
- Tmax [4]: 2.17 h
- half-life [4]: 3.52 h

SMILES: O=[N+]([O-])c1cn2c(n1)OC[C@@H](NCc1cnc(N3CCN(c4ccc(C(F)(F)F)cc4)CC3)nc1)C2 [Compound 31, (S)-2-nitro-N-((2-(4-(4-(trifluoromethyl)phenyl)piperazin-1-yl)pyrimidin-5-yl)methyl)-6,7-dihydro-5H-imidazo[2,1-b][1,3]oxazin-6-amine]
- Solubility [1]: 1354.8 µg/mL (≈ 2690 µM)
- solubility at 3 days [1]: > 1000 µg/mL
- anti Mycobacterium tuberculosis activity (MIC against H37Rv), times of that of PA-824 [2]: 8 times
- anti Mycobacterium tuberculosis activity (MIC against H37Rv), times of that of ethambutol [2]: 64 times
- MIC [2]: 7.8 ng/mL (≈ 0.0155 µM)
- IC50 [3]: 39.5 µM
- AUC(0-inf) [4]: 22500 ng·h/mL
- AUC(0-t) [4]: 22400 ng·h/mL
- Cmax [4]: 2140 ng/mL
- MRT [4]: 4.18 h
- Tmax [4]: 1.97 h
- half-life [4]: 3.05 h
- pharmacokinetic properties (in words) [4]: excellent

SMILES: N#CC1(c2ccc(OC(F)(F)F)cc2)CCN(c2ccc(CN[C@@H]3COc4nc([N+](=O)[O-])cn4C3)cn2)CC1 [Compound 10, (S)-1-(5-(((7-nitro-3,4-dihydro-2H-imidazo[2,1-b][1,3]oxazin-3-yl)amino)methyl)pyridin-2-yl)-4-(4-(trifluoromethoxy)phenyl)piperidine-4-carbonitrile]
- solubility at 3 days [1]: 522 µg/mL (≈ 960 µM)
- anti Mycobacterium tuberculosis activity (MIC against H37Rv), times of that of PA-824 [2]: 32 times
- anti Mycobacterium tuberculosis activity (MIC against H37Rv), times of that of ethambutol [2]: 256 times
- MIC [2]: 1.95 ng/mL (≈ 0.00359 µM)
- AUC(0-inf) [4]: 28800 ng·h/mL
- AUC(0-t) [4]: 28800 ng·h/mL
- Cmax [4]: 2030 ng/mL
- MRT [4]: 4.68 h
- Tmax [4]: 2.18 h
- half-life [4]: 3.35 h
- pharmacokinetic properties (in words) [4]: excellent
